Patent US6878736B1, “Histamine H3 receptor ligands” (James Black Foundation Limited, priority 1998, dated 2005)
Counter-ions that a name gives are not always drawn.

Assays:
[1] = target: T1, Histamine H3 receptor (Cavia porcellus, UniProt Q9JI35); experiment: Histamine H3 functional assay, guinea pig ileum (ileal longitudinal muscle, myenteric plexus); parameters: species or system tissue; conditions: antagonist affinity from rightward shift of R-(α)-methylhistamine E/[A] curves (Schild), typical variance ±0.15 log units; for Kb: read-out: pKb (Guinea pig ileum) (converted)
T1 sequence (Q9JI35 whole entry): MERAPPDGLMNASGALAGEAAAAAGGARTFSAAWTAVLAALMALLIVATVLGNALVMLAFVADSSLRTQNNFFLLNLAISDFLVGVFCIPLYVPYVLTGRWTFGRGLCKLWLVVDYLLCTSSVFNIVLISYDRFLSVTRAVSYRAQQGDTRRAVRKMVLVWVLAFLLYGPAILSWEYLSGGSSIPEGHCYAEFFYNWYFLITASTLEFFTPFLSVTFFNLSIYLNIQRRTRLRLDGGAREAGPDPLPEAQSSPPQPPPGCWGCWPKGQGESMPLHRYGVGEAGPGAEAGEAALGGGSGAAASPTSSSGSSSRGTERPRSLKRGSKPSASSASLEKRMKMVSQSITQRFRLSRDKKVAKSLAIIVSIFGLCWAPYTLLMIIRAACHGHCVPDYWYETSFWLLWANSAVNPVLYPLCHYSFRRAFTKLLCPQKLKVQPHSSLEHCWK
Protocol: • 1. J. Med. Chem 1994, 314. • 2. WO 97/29092 Histamine H3 Functional Assay—Guinea Pig Ileum
The biological activity of the compounds of the examples was measured using the ileal longitudinal muscle, myenteric plexus assay described by Paton and Aboo Zar (J. Physiol. 1968, 194, 13-33). Male Dunkin-Hartley guinea pigs (250-300 g) were employed. Briefly, a 50 cm portion of ileum proximal to the caecum was removed, after discarding the terminal 20 cm. Ileal segments (3 cm) were cleaned by passing Krebs-Henseleit buffer containing 3 μM mepyramine gently through the ileum using a Pasteur pipette (size: 13.8 cm length, 0.65 cm diameter). To avoid unnecessary damage to the tissue, Krebs-Henseleit buffer was passed through the ileal segment, while it was lying horizontally on a petri dish. Therefore, the ileum was not over-distended and the buffer flowed through with ease. Each segment was then passed over a Pasteur pipette and the longitudinal muscle layer and adhering myenteric plexus was teased away using moist cotton wool, by stroking tangentially away from the mesenteric attachment. The tissues were suspended in 20 ml organ baths containing Krebs-Henseleit buffer at 37±1° C. and gassed with […]. The tissues were ligated to two parallel stainless steel wires, situated between two platinum electrodes (0.76 cm length, 0.06 cm diameter). All measurements were recorded isometrically (Grass FTO3 transducer). Following an initial loading tension of 1 g, the tissues were stimulated with electrical pulses at a frequency of 0.1 Hz and a pulse duration of 0.5 msec, as described by Kosterlitz & Watt (Br. J. Pharmacol. 1968, 266276). Initially, the tissues were stimulated at supramaximal (1.3 fold times maximal) voltage for a period of 30 min and then the tissues were washed and re-stimulated. A “sighter dose” of the selective histamine H3-receptor agonist, R-(α)-methylhistamine (0.3 μM) (Arrang et al. Nature, 1987, 117-123), was administered. Upon generation of response, the “sighter dose” was removed from the tissues by “washout” (6 washes over 60 min) and during this period the electrical stimulation was switched off. The tissues were then re-stimulated and allowed to stabilise prior to the addition of drug treatments, which were allocated on a randomised block basis to the organ baths. Following the incubation period, a single cumulative E/[A] curve was obtained. The experimental E/[A] curve data was expressed as the percentage inhibition of the peak height of electrically-stimulated contraction. Antagonist affinity values were calculated from the degree of rightward shift of the R-(α)-methylhistamine E/[A] curves using Schild's methods (Arunlakshana & Schild Br. J. Pharmacol. 1959, 48-58). Typical variance in this assay is ±0.15 log units.

[2] = target: T1, Histamine H3 receptor; experiment: Histamine H3 radioligand binding assay, guinea pig cortex ([3H]-R-α-methylhistamine); conditions: guinea pig cortex membranes, competition with 1 nM [3H]-R-α-methylhistamine; for Ki: read-out: pKi (Guinea pig cortex) (converted)
Protocol: The compounds of the invention were also tested in a guinea pig cortex binding assay, as follows:
Histamine H3 Radioligand Binding Assay—Guinea Pig Cortex
Male Dunkin Hartley guinea pigs (200-300 g) were used. The whole brain was removed and immediately placed in ice-cold 20 mM Hepes-NaOH buffer (pH7.4 at 21±3° C.). The cortex was dissected, weighed and homogenised in ice-cold 20 mM Hepes-NaOH buffer (pH7.4 at 21±3° C.) (50 ml/guinea-pig cortex) using a polytron (Kinematica AG; PT-DA 3020/2TS, 3×3 s). The homogenate was centrifuged at 100×g for 5 min and the supernatants pooled and stored at 4° C. The pellets were rehomogenised in fresh ice-cold buffer (80 ml) and recentrifuged (100×g for 5 min). The supernatants were pooled and pellets rehomogenised and recentrifuged (100×g for 5 min). All supernatants were pooled and centrifuged at 39,800×g for 12 min at 4° C. The final pellet was resuspended in 20 mM Hepes-NaOH buffer (pH7.4 at 21±3° C.) to a tissue concentration of 7.5 mg.ml^−1, using a teflon-in-glass homogeniser.
Guinea pig cortex membranes (400 μl) were incubated for 165 min at 21±3° C. in a final volume of 500 μl with 20 mM Hepes-NaOH buffer containing [^3H]-R-α-methylhistamine (50 μl; 1 nM) and competing compound. Total and non-specific binding of [^3H]-R-α-methylhistamine were defined using 50 μl of buffer and 50 μl of 10 μM thioperamide, respectively. The assay was terminated by rapid filtration through Whatman GF/B filters, presoaked (2 hr) in 0.1% polyethyleneimine, using a Brandell Cell Harvester. The filters were washed (3×3 ml) with ice-cold 50 mM Tris-HCl (pH6.9 at 21±3° C.), transferred into scintillation vials, 5 ml liquid scintillation cocktail was added and after 4 hours the bound radioactivity was determined by counting (4 min) in a Beckman liquid scintillation counter.
Data are analysed using GraphPad prism and the general equation for a competition curve with variable Hill slope (nH). [formula] where • X is the log concentration of competing compound, • Y is the binding obtained at each concentration of X, • pIC50 is the concentration of the competitor required to compete for half of the specific binding.
The IC50 is converted to the K1 using the Cheng Prusoff equation, K1=IC50/(1+(L/KD)) where • IC50 is the concentration of competitor required to compete for half the specific binding, • L is the radioligand concentration used, • KD is the equilibrium dissociation constant for the radioligand determined by saturation experiments.

Compound	pKb (Guinea pig ileum) [1]	pKi (Guinea pig cortex) [2]	Kb [1] [nM]	Ki [2] [nM]
Cl.Cl.N=C(NCCCCCN1CCCC1)NCC1CCCCCC1 [Example 46, N-Cycloheptyl-methyl-N′(5-pyrrolidin-1-yl-pentyl)-guanidine bis-hydrochloride]	7.7	8.5	–	–
COc1ccc(C/N=C(\N)NCCCN2CCCC2)cc1 [Example 3, N-(4-Methoxybenzyl)-N′-(3-pyrrolidin-1-yl-propyl)-guanidine bis-hydrochloride]	–	–	794	79.4
CN1CCC[C@H]1CCCNS(=O)(=O)NCC1CCCCC1 [Example 110, N-Cyclohexyl-methyl-N′-(3-(1-methyl-pyrrolidin-2S-yl)-propyl)-sulfamide]	–	–	2510	501
N=C(NCCCN1CCCC1)NCCc1ccc(Cl)cc1 [Example 20, N-(2(4-Chlorophenyl)ethyl)-N′-(3-pyrrolidin-1-yl-propyl)-guanidine bis-hydrochloride]	–	–	200	1
CN1CCC[C@H]1CCCNS(=O)(=O)CCc1ccc(Cl)cc1 [Example 102, N-(3-(1-Methyl-pyrrolidin-2S-yl)-propyl)-2-(4-chlorophenyl)-ethanesulfonamide]	–	–	316	63.1
N=C(NCCCCCN1CCCC1)NCc1ccc(Cl)cc1 [Example 18, N-(4-Chlorobenzyl)-N′-(5-pyrrolidin-1-yl-pentyl)-guanidine bis-hydrochloride]	–	–	50.1	5.01
C[C@@H](NC(=N)NCCCCN1CCCC1)C1CCCCC1 [Example 44, N-(1(R)-Cyclohexyl-ethyl)-N′-(4-pyrrolidin-1-yl-butyl)-guanidine bis-hydrochloride]	–	–	25.1	1.58
N=C(N)N(CCCCCCN1CCCC1)Cc1ccccc1 [Example 73, N-Benzyl-N-(6-pyrrolidin-1-yl-hexyl)-guanidine bis-hydrochloride]	–	–	15.8	1.58
CN1CCCC1CCCCCNS(=O)(=O)Cc1ccc(Cl)cc1 (stereo not drawn) [Example 105, N-(5-(1-Methyl-pyrrolidin-2S-yl)-pentyl)-(4-chlorophenyl)-methanesulfonamide]	–	–	501	398
O=S(=O)(NCCCCN1CCCC1)NCc1ccc(Cl)cc1 [Example 139, N-(4-Chlorobenzyl)-N′-(4-pyrrolidin-1-yl-butyl)-sulfamide]	–	–	501	200
N=C(N)N(CCCCCCN1CCCC1)Cc1ccc(Cl)cc1 [Example 70, N-(4-Chlorobenzyl)-N-(6-pyrrolidin-1-yl-hexyl)-guanidine bis-hydrochloride]	–	–	3.98	5.01
O=S(=O)(NCCN1CCCCC1)c1ccc2ccccc2c1 [Example 84, N-(2-Piperidin-1-yl-ethyl)-2-naphthalenesulfonamide]	–	–	794	501
Cl.Cl.N=C(NCCCCCN1CCCC1)NCC1CCCCC1 [Example 41, N-Cyclohexyl-methyl-N′-(5-pyrrolidin-1-yl-pentyl)-guanidine bis-hydrochloride]	7.5	8.9	–	–
O=S(=O)(NCCN1CCCC1)c1ccc2ccccc2c1 [Example 81, N-(2-Pyrrolidin-1-yl-ethyl)-2-naphthalenesulfonamide]	–	–	1260	126
N-Biphenyl-4-yl-methyl-N′-(5-pyrrolidin-1-yl-pentyl)-guanidine bis-hydrochloride [Example 55]	6.6	7.5	–	–
CN1CCC[C@H]1CCCN(CCCN1C(=O)c2ccccc2C1=O)S(=O)(=O)NCc1ccc(Cl)cc1 [Example 125, N-(4-Chlorobenzyl)-N′-(3-phthalimido-propyl)-N′-(3-(1-methyl-pyrrolidin-2S-yl)propyl)-sulfamide]	–	–	> 3160	316
N=C(NCc1ccc(Cl)cc1)N(CCCCN1CCCC1)Cc1ccc(Cl)cc1 [Example 52, N,N′-Bis-(4-Chlorobenzyl)-N-(4-pyrrolidin-1-yl-butyl)-guanidine bis-hydrochloride]	–	–	316	316
CN1CCC[C@H]1CCCNS(=O)(=O)Nc1ccc(Cl)cc1 [Example 112, N-(4-Chlorophenyl)-N′-(3-(1-methyl-pyrrolidin-2S-yl)-propyl)-sulfamide]	–	–	1580	398
CN1CCC[C@H]1CCCNS(=O)(=O)NCc1ccc(Cl)cc1 [Example 107, N-(4-Chlorobenzyl)-N′-(3-(1-methyl-pyrrolidin-2S-yl)-propyl)-sulfamide]	–	–	158	100
CN1CCC[C@H]1CCCNS(=O)(=O)CCCc1ccc(Cl)cc1 [Example 103, N-(3-(1-Methyl-pyrrolidin-2S-yl)-propyl)-3-(4-chlorophenyl)-propanesulfonamide]	–	–	316	126
N=C(NCCCCN1CCCC1)NCCc1ccc(Cl)cc1 [Example 24, N-(2-(4-Chlorophenyl)ethyl)-N′-(4-pyrrolidin-1-yl-butyl)-guanidine bis-hydrochloride]	–	–	631	6.31
N=C(NCCCN1CCCC1)NCCCC12CC3CC(CC(C3)C1)C2 [Example 34, N-(3-Adamantan-1-yl-propyl)-N′-(3-pyrrolidin-1-yl-propyl)-guanidine bis-hydrochloride]	–	–	316	316
CN1CCC[C@H]1CCCNS(=O)(=O)N(C)Cc1ccc(Cl)cc1 [Example 121, N-(4-Chlorobenzyl)-N-methyl-N′-(3-(1-methyl-pyrrolidin-2S-yl)-propyl)-sulfamide]	–	–	1000	316
N=C(N)N(CCCCCCN1CCCC1)Cc1ccc(Br)cc1 [Example 74, N-(4-Bromobenzyl)-N-(6-pyrrolidin-1-yl-hexyl)-guanidine bis-hydrochloride]	–	–	12.6	7.94
N=C(N)N(CCCCCN1CCCC1)Cc1ccc(Cl)cc1 [Example 69, N-(4-Chlorobenzyl)-N-(5-pyrrolidin-1-yl-pentyl)-guanidine bis-hydrochloride]	–	–	12.6	1
CN1CCC[C@H]1CCCNS(=O)(=O)CCC1CCCCC1 [Example 142, N-(3-(1-Methyl-pyrrolidin-2S-yl)-propyl)-2-cyclohexyl-ethanesulfonamide]	–	–	2000	631
N=C(NCCCN1CCCC1)NCCC12CC3CC(CC(C3)C1)C2 [Example 33, N-(2-Adamantan-1-yl-ethyl)-N′-(3-pyrrolidin-1-yl-propyl)-guanidine bis-hydrochloride]	–	–	200	79.4
